Experimental data: patent US20240060999A1, “BLOOD COAGULATION INSPECTION METHOD” (FUJIMORI KOGYO CO., LTD, priority 2020, published 2024)

Test system: whole blood
Experiment: ROTEM whole blood coagulation with dialyzed Dade Innovin (recombinant tissue factor) 0.569 μg/mL + Ca 12 mM + CTI 20 μg/mL + PKSI-527 40 μM
Format: cell-based
Conditions: Ex26; for CT (clotting time): Innovin 0.569 μg/mL+Ca+CTI+PKSI-527, heparan sulfate 2 μg/mL
Experimental: ROTEM was used to analyze blood coagulation.
Blood was collected using a blood collection tube containing 3.2% sodium citrate manufactured by Terumo Corporation.
Blood coagulation was analyzed in the case of having added 4% (final concentration 0.569 μg/mL) of Dade Innovin (recombinant tissue factor: Sysmex Corporation) having being diluted by 50 times after dialysis, calcium chloride (Ca; final concentration 12 mM), heparan sulfate (final concentration 0 or 2 μg/mL), CTI (final concentration 20 μg/mL), PKSI-527 (final concentration 40 μM) without and with a soluble thrombomodulin (rTM: final concentration 30 nM) further having been added, as well as with an APC inhibitory aptamer (HS02-44G; final concentration 1 μM) in addition to 30 nM of soluble thrombomodulin.
Blood coagulation was analyzed in the case of having added 4% (final concentration 0.569 μg/mL) of 50-fold diluted Dade Innovin (recombinant tissue factor: Sysmex Corporation) after dialysis, calcium chloride (Ca; final concentration 12 mM), low molecular weight heparan (trade name FRAGMIN; Pfizer) (final concentration 0 or 0.2 U/mL), CTI (final concentration 20 μg/mL), and PKSI-527 (final concentration 40 μM) with and without a soluble thrombomodulin (rTM; final concentration 30 nM) further having been added, as well as with an APC inhibitory aptamer (HS02-44G; final concentration 1 μM) in addition to 30 nM soluble thrombomodulin.
ROTEM was used to analyze coagulation.
Blood coagulation was analyzed in the case of having added 4% (final concentration 0.569 μg/mL) of 50-fold diluted Dade Innovin (recombinant tissue factor: Sysmex Corporation) after dialysis, calcium chloride (Ca; final concentration 12 mM), ARIXTRA (final concentration 0 or […]), CTI (final concentration 20 μg/mL), and PKSI-527 (final concentration 40 μM), without and with thrombomodulin (rTM; final concentration 30 nM) further having been added, as well as with an APC inhibitory aptamer (HS02-44G; final concentration 1 μM) in addition to soluble thrombomodulin 30 nM.

Heparan sulfate
CT (clotting time) (no rTM): 410 s | CT (clotting time) (rTM 30 nM): 904 s | CT (clotting time) (rTM 30 nM+APC inhibitory aptamer 1 μM): 643 s | anticoagulation ability of the soluble thrombomodulin (addition of heparan sulfate 2 μg/mL, rTM 30 nM): markedly enhanced
